The record followed here is patent US9364462B2, “Alpha-1-adrenergic receptor agonist therapy” (The Regents of the University of California, priority 2012, dated 2016).

Each structure is given as a SMILES string.

Data set [1] in a line: Pressure overload cardiomyopathy (transverse aortic constriction, TAC) model. The format is in vivo, mouse. The source says:
FIG. 7. A61603 rescues pressure overload cardiomyopathy. Mice had echo 2 weeks after TAC, at which time they were randomized to treatment with A61603, at the same low dose, or vehicle. Fractional shortening, an index of cardiac function, was depressed by TAC, and improved with A61603, but not with vehicle.
FIG. 8. A61603 in pressure overload cardiomyopathy improves growth and protection, and reduces fibrosis.
Studies in mice looking at alpha-1 agonist therapy, using A61603, in a model of heart failure due to pressure overload (transverse aortic constriction model). A model of pressure overload was tested for 2 reasons: (1) test generality of A61603 effects in different types of cardiomyopathy; and (2) test treatment (rescue), rather than prevention, i.e. A61603 given at an interval of time after injury, when cardiomyopathy was already manifest. We used an adult mouse model of transverse aortic constriction (TAC), with the aorta surgically narrowed, so that the heart had to pump against an increased pressure (pressure overload). […] A61603 treatment rescued the cardiomyopathy, as measured by heart function (FIG. 7). […] Thus improvement in function caused by A61603 was again due to direct effects on cardiac muscle cells. The alpha-1A agonist A61603 at a low dose rescues (e.g. treats) cardiomyopathy due to pressure overload, an injury that simulates several types of cardiac disease, and the mechanism is improvement of cardiac myocytes.

Data set [2] has as its system kinase ERK. In words: ERK activation in neonatal rat cardiac muscle cells in vitro. The format is cell-based. The settings on record: FIG. 1. An excerpt: FIG. 1. A61603 protects neonatal cardiac muscle cells.
In data set [3] the test system is ERK. In words: ERK activation in adult mouse cardiac muscle cells. Type of data set: cell-based. The settings on record: low concentration, FIG. 3 left. An excerpt:
(§1) FIG. 3. A61603 protects adult cardiac muscle cells. In adult mouse cardiac muscle cells, A61603 at a low concentration activates ERK (left), and protects against a cardiotoxic cancer drug, (DOX) (right). These effects are not blocked by a beta-blocker, propranolol (Prop), which is current standard of care in heart failure therapy. That is, A61603 effects are additive to those of a beta-blocker. Knockout of the alpha-1A receptor (AKO) eliminates myocyte protection by A61603 (right), showing that the drug does indeed work through the alpha-1A, as expected.

Data set [4] can be described thus: Blood pressure after acute intraperitoneal injection, indwelling arterial catheter. Type of data set: in vivo, mouse. The settings on record: 10 ng/kg injected acutely intraperitoneal. The method, then: The classic effect of alpha-1-agonists is to increase BP by stimulating smooth muscle cells to contract. It could be a disadvantage in heart failure (HF) therapy to increase BP excessively. On the other hand, all current recommended drugs in HF reduce BP, and a drug that increased BP slightly might have a strong therapeutic advantage. […] The foregoing experiments provided the rationale to test treatment with A61603 at 10 ng/kg/d in a mouse model of cardiomyopathy and HF.

The subject of data set [5] is adult mouse cardiac muscle cells. In words: Protection of adult mouse cardiac muscle cells against doxorubicin (DOX). Type of data set: cell-based.
Source text: as §1

The test system of data set [6] is cardiac myocytes. In words: Cardiac cell protective and adaptive (anabolic) effects in vitro, comparison of alpha-1-agonists. The format is cell-based. The settings on record: neonatal rat and adult mouse cardiac myocytes, FIG. 1-3.

Regarding `CS(=O)(=O)Nc1c(O)ccc2c1CCCC2C1=NCCN1` (stereo not drawn) [A61603, N-[1-(4,5-dihydro-1H-imidazol-2-yl)-6-hydroxy-tetralin-5-yl]methanesulfonamide], the “degree of overload (the gradient)” value in data set [1] (A61603 vs vehicle group after TAC) is reported as “the same in both groups”. In data set [1] (TAC), the “adaptive proteins (myosin or MF20 and beta-myosin or bMHC)” value is given as “more adaptive proteins”; the “collagen fibrosis (Col I)” value is given as “less collagen fibrosis”; the “heart weight normalized to body weight (HW/BW)” value is given as “less abnormal enlargement”; the “protection (ERK)” value is listed as “higher protection”. The fractional shortening result in data set [1] (treatment started 2 weeks after TAC, low dose, vs vehicle) was “improved”. In addition, the “activation of the kinase ERK” value in data set [2] is “high efficacy and potency”. Further, the ERK activation entry in data set [3] is on record as “activates ERK”. For the same compound, in data set [4], the BP entry was “does not increase BP”. In data set [5] (FIG. 3 right), the “protection against cardiotoxic cancer drug (DOX)” value is on record as “protects”. For the same compound, in data set [5] (with propranolol (Prop)), the “ERK activation and DOX protection in presence of beta-blocker propranolol” value is on record as “not blocked”. For the same compound, the “potency and efficacy relative to several other alpha-1-agonists” value in data set [6] is “more potent (i.e. worked at a lower dose) and efficacious (i.e. had a larger total effect)”.
